Values joined by “and” are separate entries in the source; they are usually repeats but may differ in a detail not shown here. Identical values can stand only once.

One data set deals with 5-HT2A receptor (Homo sapiens (Human), UniProt P28223). Description: Competitive 5-HT2A receptor binding assay (3H-Ketanserin, CHO-5-HT2A membrane). Conditions: for Ki: CHO-5-HT2A membrane, 3H-Ketanserin, read-out: 5-HT2A (Ki value); for 2C/2A: ratio of 5-HT2C Ki to 5-HT2A Ki. The protocol:
1) Preparation of CHO-5-HT2A Receptor Membrane
The precipitate was collected, and the supernatant was discarded. The solution B was added into the precipitate. […] The supernatant was carefully discarded, and the solution B was added into the precipitate again. […] The precipitate obtained was stored at −80° C.
1) Competitive 5-HT2A Receptor Binding Assay
Step 2: 100 μL of the membrane preparation was added into each reaction tube.
After the filtration, the filter membrane was dried at 60° C. and added into a scintillation disc attached with a bottom membrane, which was then added with 40 μL of scintillation liquid, sealed with a top membrane, and left to stand.

Another data set deals with hERG potassium channel (Homo sapiens (Human), UniProt Q12809). Description: In vitro hERG assay, whole-cell patch clamp in HEK-293 cells. It counts as cell-based. To be noted: HEK-293 cells stably expressing hERG, room temperature. The protocol:
b. […] The working solutions of the test compounds were ultrasonically treated for 20 min.
The cell suspension was gently pipetted to separate the aggregated cells.
Under an inverted microscope, recording electrodes were controlled by a glass electrode micromanipulator (micromanipulation) to contact with the cell. […] After forming the GΩ seal, a rapid capacitance compensation was given.
Negative control and test compounds flowed through the recording chamber in an ascending order of concentration by gravity perfusion to quickly act on the cells. During the recording, the extracellular fluid was continuously circulated by a vacuum pump. […] Each concentration was allowed to act for 5 min or until the current was stabilized. All experiments were performed at room temperature.
[formula] Basic statistics were calculated for each concentration, including mean, standard deviation (SD), standard error (SE), and replicates (n). The dose-dependent curve was fitted with the following equation and the half maximal inhibitory concentration (IC50) of the test compounds was calculated:
Curve fitting and calculation of IC50 were performed by GraphPad Prism 5.0 software. 5. Experimental Results
On the technique in general: Block of hERG is tested as a sign of cardiac risk.

Data set [1] deals with MPTP+MK-801-induced Parkinson's disease mouse model. As to the kind of experiment: MPTP+MK-801-induced Parkinson's disease mouse model (anti-PDP efficacy model). To be noted: ip, mice, intraperitoneal, read-out: PDP efficacy (high activity) ED50. It counts as in vivo. The protocol:
1.1 Effect on MPTP+MK-801-induced Parkinson's disease mouse model (anti-PDP efficacy model)
Animals were injected with different doses of MPTP(1-methyl-4-phenyl-1,2,3,6-tetrahydropyridine) intraperitoneally every morning for 5 consecutive days. […] Then, after an interval of 0.25 h, the mice were placed into an autonomous activity test box (a black polyethylene box with the specification of 29 cm×29 cm×30 cm) for video recording for 20 min. Video analysis was performed after the video recording to evaluate the activity of the mice.

In data set [2] the test system is MPTP+APO-induced climbing behavior in male mice. As to the kind of experiment: MPTP+APO-induced climbing behavior in male mice (DA motor deterioration model). It counts as in vivo. Conditions: observation in words. The protocol:
1.2 Effect on MPTP+APO-induced climbing behavior in male mice (DA motor deterioration model) Animals were injected with different doses of MPTP intraperitoneally every morning for 5 consecutive days. […] After the subcutaneous injection, animals were immediately placed into a climbing cage (self-made, a cylindrical cage with the diameter of 13 cm and the height of 15 cm, made of a stainless steel wire mesh with the diameter of about 0.1 cm, the bottom of which is a semitransparent polyethylene plate, and the cage cover of which is a stainless steel cage cover), and the behaviors of animals at minutes 10-11, 20-21 and 30-31 after the APO injection was observed and scored.
Scoring criteria: four feet on the floor scored 0; two forepaws on the cage scored 1; and four feet on the cage scored 2.

Data set [3] can be described thus: Investigation of sedation side effects (autonomic activity, movement distance). It counts as in vivo, mice. To be noted: mouse, in vivo, ip; C57BL/6j mice, intraperitoneal, 45 min after administration. The protocol:
(§1) 1.3 Investigation of Sedation Side Effects (Anti-Sedation Model)
(§2) According to different doses of each group, solutions at different concentrations were separately formulated for intraperitoneal injection, with the final administration volume of 10 mL/kg.
(§3) The movement at 0-20 min was recorded on video, and the movement distance in 20 min was analyzed by Top Scan 3.00 software. The inhibition rate of each group relative to the blank group after the administration were calculated, and the sedation effects of the compounds were comprehensively evaluated in combination with a statistical conclusion.

For the next data set, the system named is C57BL/6j mice. Described as above. It counts as in vivo. Conditions: sedation ED50 / PDP efficacy ED50. The method, then: as §1, §2, §3
For data set [4], the system named is DOI-induced head shaking behavior of mice. As to the kind of experiment: DOI-induced head shaking (head thrust) test in mice. To be noted: Mus musculus, intragastric, DOI 1 mg/kg i.p., 0-20 min, read-out: ED50 for inhibiting the DOI-induced head shaking behavior. It counts as in vivo. The protocol:
1. Head Thrust Test in Mice
Mice were stratified according to body weight and then randomly divided into a model control group, a blank control group and drug administration groups. 1 h after the intragastric administration of a vehicle or a drug, the animals were placed in a beaker (with the diameter of 13 cm and the height of 19 cm) paved with fresh padding, and were injected with a modeling drug DOI ((±)-1-(2,5-dimethoxy-4-iodophenyl)-2-aminopropane hydrochloride or (±)-2,5-dimethoxy-4-iodoamphetamine hydrochloride) intraperitoneally at a dose of 1 mg/kg. The head shaking times of the mice during the 0-20 min after the intraperitoneal injection of DOI were recorded. The head shaking behavior is defined as a rapid rotational twitching or wet dog-like shaking of the mouse head, which is distinguished from normal grooming or exploring behavior.

The target of the next data set is 5-HT2C receptor (Rattus norvegicus (Rat), UniProt P08909). To be noted: read-out: 5-HT2C (Ki value); rat cortex membrane, 3H-Mesulergine.
Sequence of 5-HT2C receptor (P08909 33-460): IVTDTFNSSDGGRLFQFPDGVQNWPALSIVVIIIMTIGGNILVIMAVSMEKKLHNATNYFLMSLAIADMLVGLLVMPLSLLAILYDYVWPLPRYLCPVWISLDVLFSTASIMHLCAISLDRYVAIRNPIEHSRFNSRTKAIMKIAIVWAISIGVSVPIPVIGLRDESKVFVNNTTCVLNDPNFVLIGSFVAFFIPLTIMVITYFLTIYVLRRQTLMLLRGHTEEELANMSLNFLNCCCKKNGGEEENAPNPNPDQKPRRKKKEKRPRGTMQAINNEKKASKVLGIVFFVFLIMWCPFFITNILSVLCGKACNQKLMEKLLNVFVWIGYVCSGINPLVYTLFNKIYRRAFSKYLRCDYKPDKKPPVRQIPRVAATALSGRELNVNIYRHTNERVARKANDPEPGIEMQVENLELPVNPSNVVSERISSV
Data set [5] has as its system MK-801-induced high activity behavior of mice. Description: Dizocilpine (MK-801)-induced high activity test in mice. It counts as in vivo. To be noted: Mus musculus, 1 h, intragastric, MK-801 0.3 mg/kg i.p., 60 min, read-out: ED50 for inhibiting the MK-801-induced high activity behavior. The protocol:
2. Dizocilpine (MK-801)-Induced High Activity Test in Mice 2.1 Test Method
Mice were stratified according to body weight and then randomly divided into a model control group, a blank control group and drug administration groups. After the administration of a test substance (or a control substance), the mice were placed into an autonomous activity test box (a black polyethylene box with the specification of 29 cm×29 cm×30 cm) for adaptation, and injected with MK-801 at 0.3 mg/kg intraperitoneally 1 h after the intragastric administration. The mice were then placed into the autonomous activity test box for video recording for 60 min. Video analysis was performed after the video recording to evaluate the activity of the mice.

The test system of data set [6] is DOI-induced PPI impairment in rats. As to the kind of experiment: DOI-induced PPI impairment test in rats (intervention test). It counts as in vivo. Conditions: DOI 0.5 mg/kg. The method, then:
3. DOI ((f)-1-(2,5-dimethoxy-4-iodophenyl)-2-aminopropane hydrochloride or (f)-2,5-dimethoxy-4-iodoamphetamine hydrochloride) induced PPI impairment effect test in rats
30 min after the intragastric administration of a drug (or a vehicle) and 30 min after the subcutaneous injection of DOI at 0.5 mg/kg at the neck, namely 60 min after the intragastric administration, the rats were placed into a startle reflex test box for testing.
(§4) The test was performed according to literature and preliminary experiments, and the specific process was as follows: first an adaptation period of 5 min was given (62 dB background sound), and 5 separate startle reflex stimuli were given after the adaptation period (blockl, results not included in the analysis to reduce the initial response of the animals to a plateau level), followed by 4 different types of tests (block2) presented in a pseudo-random manner, namely: 1) startle reflex stimulus alone (pulse-alone, 120 dB, lasting 20 ms); 2) prepulse stimulus alone 13 dB above the background sound (prepulse-alone, 75 dB, lasting 20 ms); 3) prepulse stimulus in combination with startle reflex stimulus, each lasting 20 ms, with an interval of 100 ms; and 4) no stimulus in which only the background sound was given (no stimulus). Each trial was performed 5 times, with an average interval of 20 s (10-30 s) between trials.
The response amplitude of the startle reflex stimulus alone or the prepulse stimulus in combination with startle reflex stimulus was expressed as the AVG (instrument-specific unit) value, which indirectly reflects the size of the flinching response of the rat body. Evaluation index: PPI %=(1−response amplitude of prepulse stimulus in combination with startle reflex stimulus/response amplitude of startle reflex stimulus alone)×100. The higher the value is, the greater the degree of the inhibition is.

The subject of another data set is PPI in normal rats. Description: PPI in normal rats (dosing test, normal saline instead of DOI). It counts as in vivo. Conditions: for PPI %, MEAN / PPI %, individual animal: normal saline. The protocol:
as §4
The response amplitude of the startle reflex stimulus alone or the prepulse stimulus in combination with startle reflex stimulus was expressed as the AVG (instrument-specific unit) value, which indirectly reflects the size of the flinching response of the rat body. Evaluation index: PPI %=(1−response amplitude of prepulse stimulus in combination with startle reflex stimulus/response amplitude of startle reflex stimulus alone)×100. The higher the value is, the greater the degree of the inhibition is. Dosing Test:
The DOI at 0.5 mg/kg administered to animals in the above groups was changed to normal saline (NS), and other operations including administration and testing were the same as those in the intervention test.

Sequence of 5-HT2A receptor (P28223 whole entry): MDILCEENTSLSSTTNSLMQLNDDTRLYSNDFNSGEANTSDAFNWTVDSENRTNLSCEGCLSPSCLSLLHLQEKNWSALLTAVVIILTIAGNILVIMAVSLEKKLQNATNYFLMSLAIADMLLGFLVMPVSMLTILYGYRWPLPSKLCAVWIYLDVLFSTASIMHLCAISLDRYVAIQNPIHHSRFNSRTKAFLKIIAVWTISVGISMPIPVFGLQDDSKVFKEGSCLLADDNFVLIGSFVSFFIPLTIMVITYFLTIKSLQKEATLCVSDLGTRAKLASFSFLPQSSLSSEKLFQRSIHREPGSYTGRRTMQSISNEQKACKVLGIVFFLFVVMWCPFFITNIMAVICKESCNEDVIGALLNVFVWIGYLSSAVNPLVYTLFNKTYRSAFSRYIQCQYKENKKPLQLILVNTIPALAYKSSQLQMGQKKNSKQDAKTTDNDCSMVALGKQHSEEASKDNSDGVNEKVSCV
Sequence of hERG potassium channel (Q12809 whole entry): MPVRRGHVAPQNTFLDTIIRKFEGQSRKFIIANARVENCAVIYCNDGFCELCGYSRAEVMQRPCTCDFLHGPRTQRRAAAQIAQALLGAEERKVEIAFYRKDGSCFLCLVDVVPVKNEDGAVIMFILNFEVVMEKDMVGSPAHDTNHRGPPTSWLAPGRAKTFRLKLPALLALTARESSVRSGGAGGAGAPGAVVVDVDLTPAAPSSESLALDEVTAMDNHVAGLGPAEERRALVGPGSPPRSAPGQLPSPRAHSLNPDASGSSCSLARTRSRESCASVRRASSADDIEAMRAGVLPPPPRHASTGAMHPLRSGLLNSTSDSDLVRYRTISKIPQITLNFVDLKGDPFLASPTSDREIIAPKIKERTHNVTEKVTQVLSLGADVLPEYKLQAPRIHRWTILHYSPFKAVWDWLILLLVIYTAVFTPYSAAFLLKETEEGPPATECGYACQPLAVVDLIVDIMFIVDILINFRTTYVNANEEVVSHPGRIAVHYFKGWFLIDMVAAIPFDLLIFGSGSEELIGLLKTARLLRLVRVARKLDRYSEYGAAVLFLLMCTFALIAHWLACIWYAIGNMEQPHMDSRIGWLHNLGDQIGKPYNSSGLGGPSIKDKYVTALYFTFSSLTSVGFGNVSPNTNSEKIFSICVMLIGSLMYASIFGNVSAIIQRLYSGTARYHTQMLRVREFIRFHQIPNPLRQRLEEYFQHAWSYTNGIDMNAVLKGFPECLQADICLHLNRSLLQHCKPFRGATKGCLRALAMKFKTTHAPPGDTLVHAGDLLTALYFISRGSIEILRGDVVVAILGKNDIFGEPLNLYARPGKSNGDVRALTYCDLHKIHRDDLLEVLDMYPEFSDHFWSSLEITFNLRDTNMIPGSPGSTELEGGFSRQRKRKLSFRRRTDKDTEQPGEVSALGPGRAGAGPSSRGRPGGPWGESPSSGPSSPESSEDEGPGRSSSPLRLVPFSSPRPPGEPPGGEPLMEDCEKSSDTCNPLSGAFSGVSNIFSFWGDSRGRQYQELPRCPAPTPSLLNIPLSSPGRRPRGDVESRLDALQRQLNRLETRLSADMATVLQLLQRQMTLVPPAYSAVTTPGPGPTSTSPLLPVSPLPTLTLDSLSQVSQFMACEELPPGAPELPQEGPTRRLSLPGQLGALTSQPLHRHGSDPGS
Description for 5-HT2C receptor: 2) Preparation of 5-HT2C Membrane
The rat cortex was taken out of a refrigerator at −80° C. and thawed spontaneously. The solution A was added, and the mixture was homogenized for 3-4 s at 4th gear for a total of 4 times and centrifuged at 50000 g for 25 min at 4° C. The supernatant was discarded, and the solution A was added into the precipitate. The mixture was mixed well using a vortex mixer and centrifuged at 50000 g for 25 min at 4° C. (repeated twice). The supernatant was discarded after the centrifugation, and the precipitate was stored at −80° C. for later use.
2) Competitive 5-HT2C Receptor Binding Assay
Step 1: the prepared membrane was suspended in the homogenate B to obtain a 210 mg/mL membrane suspension for later use.
Step 2: 100 μL of the membrane suspension was added into each reaction tube.
Step 3: 100 μL of the solution B was added into a total binding tube (TB), 100 μL of Ketanserin (final concentration: 1.0×10^−5 M) was added into a non-specific binding tube (NB), and 100 μL of test compound was added into each compound binding tube (CB).
Step 4: 10 μL of radioligand ^3H-Mesulergine was added into each reaction tube to reach a final concentration of 3 nM.
Step 5: each reaction tube was incubated at 37° C. for 25 min. After the reaction was completed, the binding ligands were rapidly filtered under reduced pressure, wherein the Whatman test paper GF/C was washed with 0.5% PEI solution 1 h in advance. The filter membrane was fully washed with cold Tris buffer solution, taken out and put into a 4 mL scintillation disc, which was then added with 1 mL toluene scintillation solution and shaken for mixing well.
Step 6: the scintillation disc was put into a liquid scintillation counter for counting.

Take `CC(C)COc1ccc(CN2Cc3cc(F)ccc3CN(C3CCN(C)CC3)C2=O)cc1` [NH-K-A19001, 7-fluoro-2-(1-methylpiperidin-4-yl)-4-[[4-(2-methylpropoxy)phenyl]methyl]-1,5-dihydro-2,4-benzo diazepine-3-one]: the Ki on 5-HT2A receptor amounted to 0.028 nM; on 5-HT2C receptor, 2.4 nM. The 2C/2A at 5-HT2A receptor is 86.327. On hERG potassium channel, this compound showed an IC50 of 260 nM. The ED50 was 0.33 mg/kg in data set [1] and 0.06 mg/kg in data set [4]. For the same compound, in [2], the “motor deterioration (DA mechanism of action)” value was “no motor deterioration is observed”. In addition, the ED50 at 45 min in data set [3] was 3.74 mg/kg. In addition, the “Ratio of sedation ED50 to PDP efficacy ED50” value with C57BL/6j mice is 11.33.

Consider `CN1CCC(N2Cc3cc(F)ccc3CN(Cc3ccc(OC4CC4)cc3)C2=O)CC1` [NH-K-A19006, 8-fluoro-2-(1-methylpiperidin-4-yl)-4-[[4-(cyclopropoxy)phenyl]methyl]-1,5-dihydro-2,4-benzodiazepine-3-one], for which the Ki amounted to 0.277 nM at 5-HT2A receptor and 1.62 nM at 5-HT2C receptor. Also, the 2C/2A on 5-HT2A receptor is recorded as 5.856. In addition, inhibition on hERG potassium channel was half-maximal at 1190 nM (IC50). Also, the ED50 amounted to 0.31 mg/kg in [1], 0.012 mg/kg in data set [4] and 0.265 mg/kg in [5]. Besides, the ED50 at 45 min in data set [3] was 11.9 mg/kg. In addition, the “reversal of DOI-induced PPI impairment” value in data set [6] (0.3 mg/kg, P<0.05) was “significantly reverse”. The “PPI %, MEAN” value in [6] (0.03 mg/kg intragastric) came out at 33.01%; in [6] (0.1 mg/kg intragastric), 43.48%; in data set [6] (0.3 mg/kg intragastric), 50.12%; in the data set with PPI in normal rats (0.03 mg/kg intragastric) it was 68.69%; in the data set on PPI in normal rats (0.1 mg/kg intragastric), 70.23%; in the data set with PPI in normal rats (0.3 mg/kg intragastric) it was 53.62%. In addition, the “PPI %, individual animal” value in data set [6] (0.03 mg/kg intragastric) is 49.78% and 58.97% and 53.17% and 2.79% and 32.00% and 8.44% and 20.87% and 38.06%; in data set [6] (0.1 mg/kg intragastric), 12.46% and 51.33% and 38.29% and 47.73% and 47.53% and 74.93% and 10.18% and 65.40%; in [6] (0.3 mg/kg intragastric), 60.53% and 60.18% and 56.91% and 67.62% and 85.73% and 7.56% and 39.78% and 22.65%; in the data set with PPI in normal rats (0.03 mg/kg intragastric), 81.41% and 91.96% and 55.90% and 54.35% and 60.94% and 74.39% and 87.22% and 43.35%; with PPI in normal rats (0.1 mg/kg intragastric), 60.40% (2×) and 81.41% and 77.50% and 71.96% and 69.71% and 50.53% and 89.95%; in the data set with PPI in normal rats (0.3 mg/kg intragastric), 47.76% and 42.79% and 68.71% and 70.20% and 55.52% and 65.07% and 16.28% and 62.68%. Moreover, the “effect on PPI in normal rats” value in the data set with PPI in normal rats (0.3 mg/kg) is “no significant effects were seen”.

What is called Ki is the dissociation constant of the complex between target and ligand, obtained from inhibition or displacement. The term IC50 denotes the point on the concentration scale where inhibition reaches its midpoint. A low value points to inhibition by little substance. As usually defined, the ED50 is the dose at which the effect has come halfway, by size or by number of responders.

(Values after patent publication US12559471B2, “1,5-dihydro-2,4-benzodiazepine-3-one derivative and application thereof” (JIANGSU NHWA PHARMACEUTICAL CO., LTD, priority 2020, dated 2026).)
